Reference: patent US20170008888A1 (KYORIN PHARMACEUTICAL CO., LTD., priority 2014, published 2017)

Columns and labels:
[1] = target: T1, ERK5 (Homo sapiens, UniProt Q13164); experiment: Probe-based (AX9989 acyl phosphate ATP probe) kinase profiling in Jurkat lysate: ERK5; assay type: binding; settings: for IC50: calculated from percent inhibition of AX9989 labeling and the screening concentration, Jurkat lysate; for inhibition at 1 µM: screening concentration 1.0 μM; for inhibition at 1 µM / inhibition at 0.1 µM: read-out: Kinase inhibition % at indicated screening concentration: ERK5; for inhibition at 0.1 µM: screening concentration 0.1 μM
T1 construct: screened for activity against several kinases in Jurkat cells; endogenous in cells; host or cells: Jurkat cell lysate
Method in brief: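 ERK5 IC50 values came from percent inhibition at the screening concentration, measured as loss of LC/MS signal of probe-labelled active-site peptides. Compound was added for 15 min at room temperature to Jurkat lysate (5 mg/ml, 20 mM MnCl2) before labelling with AX9989 ATP acyl phosphate probe at 5 μM.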

[2] = target: T2, ACK (Homo sapiens, UniProt Q07912); experiment: Probe-based (AX9989) kinase profiling in Jurkat lysate: ACK; assay type: binding; settings: read-out: Kinase inhibition % at indicated screening concentration: ACK; for inhibition at 1 µM: screening concentration 1.0 μM; for inhibition at 0.1 µM: screening concentration 0.1 μM
T2 construct: screened for activity against several kinases in Jurkat cells; endogenous in cells; host or cells: Jurkat cell lysate
Method in brief: (§1)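 Read-out: LC/MS intensity of desthiobiotinylated kinase active-site peptides, percent inhibition normalized to no-compound lysate. Jurkat lysate with 20 mM MnCl2 received compound for 15 min at room temperature, then 5 μM AX9989 probe; duplicates.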

[3] = target: T3, JAK1 (Homo sapiens, UniProt P23458); experiment: Probe-based (AX9989) kinase profiling in Jurkat lysate: JAK1; assay type: binding; settings: read-out: Kinase inhibition % at indicated screening concentration: JAK1; for inhibition at 1 µM: screening concentration 1.0 μM; for inhibition at 0.1 µM: screening concentration 0.1 μM
T3 construct: screened for activity against several kinases in Jurkat cells; endogenous in cells; host or cells: Jurkat cell lysate
Method in brief: as §1

[4] = system: human PBMCs; experiment: Human PBMC TNF-α response to endotoxin (ELISA); assay type: cell-based; settings: 0.1 μg/ml LPS 16 h, read-out: EC50 for the inhibition of the human PBMC TNF-α response to endotoxin, ave. ± S.D.
Method in brief: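 PBMCs at 2e6 cells/ml in RPMI 1640 with 10% charcoal-dextran-treated FBS were pre-treated 1 h at 37 °C with compound (4-point 1:5 dilution from 10 μM). Stimulation with 0.1 μg/ml E. coli 0111:B4 LPS for 16 h; TNF-α measured by ELISA (A450) in 25-fold diluted supernatant.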

[5] = target: T4, AurA (Homo sapiens, UniProt O14965); experiment: Probe-based (AX9989) kinase profiling in Jurkat lysate: AurA; assay type: binding; settings: read-out: Kinase inhibition % at indicated screening concentration: AurA; for inhibition at 1 µM: screening concentration 1.0 μM; for inhibition at 0.1 µM: screening concentration 0.1 μM
T4 construct: screened for activity against several kinases in Jurkat cells; endogenous in cells; host or cells: Jurkat cell lysate
T4 sequence (O14965 1-403): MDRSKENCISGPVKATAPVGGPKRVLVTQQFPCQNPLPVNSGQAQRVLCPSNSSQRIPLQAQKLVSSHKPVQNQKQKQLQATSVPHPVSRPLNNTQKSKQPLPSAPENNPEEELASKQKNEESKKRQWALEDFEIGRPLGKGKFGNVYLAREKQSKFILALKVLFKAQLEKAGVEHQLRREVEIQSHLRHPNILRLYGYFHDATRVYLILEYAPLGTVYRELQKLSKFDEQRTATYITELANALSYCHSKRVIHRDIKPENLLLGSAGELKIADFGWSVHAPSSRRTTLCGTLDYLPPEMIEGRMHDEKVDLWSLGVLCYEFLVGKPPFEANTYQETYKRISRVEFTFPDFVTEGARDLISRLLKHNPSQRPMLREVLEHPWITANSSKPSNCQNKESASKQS
Method in brief: as §1

[6] = system: AurB or AurC; experiment: Probe-based (AX9989) kinase profiling in Jurkat lysate: AurB or AurC; assay type: binding
Method in brief: as §1

T2 sequence (Q07912 whole entry): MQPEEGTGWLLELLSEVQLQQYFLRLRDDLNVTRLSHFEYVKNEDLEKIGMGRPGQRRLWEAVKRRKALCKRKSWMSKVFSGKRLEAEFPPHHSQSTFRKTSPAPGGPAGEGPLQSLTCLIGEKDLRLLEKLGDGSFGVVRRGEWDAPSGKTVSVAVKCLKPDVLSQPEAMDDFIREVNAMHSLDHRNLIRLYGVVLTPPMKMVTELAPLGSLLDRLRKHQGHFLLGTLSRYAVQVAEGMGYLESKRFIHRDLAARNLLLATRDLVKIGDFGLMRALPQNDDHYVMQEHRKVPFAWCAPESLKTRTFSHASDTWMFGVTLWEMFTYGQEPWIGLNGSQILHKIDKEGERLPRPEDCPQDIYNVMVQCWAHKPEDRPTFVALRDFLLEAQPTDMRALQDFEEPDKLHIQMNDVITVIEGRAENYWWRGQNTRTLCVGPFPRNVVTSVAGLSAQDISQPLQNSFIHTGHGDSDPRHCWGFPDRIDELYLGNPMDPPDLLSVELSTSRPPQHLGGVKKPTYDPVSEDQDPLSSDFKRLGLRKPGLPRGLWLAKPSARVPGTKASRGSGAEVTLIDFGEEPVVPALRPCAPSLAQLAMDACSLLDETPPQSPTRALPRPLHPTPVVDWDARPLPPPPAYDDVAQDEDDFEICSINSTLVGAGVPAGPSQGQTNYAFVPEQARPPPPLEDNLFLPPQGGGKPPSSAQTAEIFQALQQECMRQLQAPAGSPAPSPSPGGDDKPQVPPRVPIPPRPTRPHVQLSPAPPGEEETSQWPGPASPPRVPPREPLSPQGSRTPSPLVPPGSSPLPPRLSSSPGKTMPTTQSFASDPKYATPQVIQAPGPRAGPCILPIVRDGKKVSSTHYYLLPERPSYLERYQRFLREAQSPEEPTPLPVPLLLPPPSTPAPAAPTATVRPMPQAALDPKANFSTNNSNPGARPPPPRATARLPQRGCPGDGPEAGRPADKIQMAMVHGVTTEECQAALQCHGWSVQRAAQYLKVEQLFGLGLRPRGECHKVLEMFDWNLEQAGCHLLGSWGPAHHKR
T3 sequence (P23458 whole entry): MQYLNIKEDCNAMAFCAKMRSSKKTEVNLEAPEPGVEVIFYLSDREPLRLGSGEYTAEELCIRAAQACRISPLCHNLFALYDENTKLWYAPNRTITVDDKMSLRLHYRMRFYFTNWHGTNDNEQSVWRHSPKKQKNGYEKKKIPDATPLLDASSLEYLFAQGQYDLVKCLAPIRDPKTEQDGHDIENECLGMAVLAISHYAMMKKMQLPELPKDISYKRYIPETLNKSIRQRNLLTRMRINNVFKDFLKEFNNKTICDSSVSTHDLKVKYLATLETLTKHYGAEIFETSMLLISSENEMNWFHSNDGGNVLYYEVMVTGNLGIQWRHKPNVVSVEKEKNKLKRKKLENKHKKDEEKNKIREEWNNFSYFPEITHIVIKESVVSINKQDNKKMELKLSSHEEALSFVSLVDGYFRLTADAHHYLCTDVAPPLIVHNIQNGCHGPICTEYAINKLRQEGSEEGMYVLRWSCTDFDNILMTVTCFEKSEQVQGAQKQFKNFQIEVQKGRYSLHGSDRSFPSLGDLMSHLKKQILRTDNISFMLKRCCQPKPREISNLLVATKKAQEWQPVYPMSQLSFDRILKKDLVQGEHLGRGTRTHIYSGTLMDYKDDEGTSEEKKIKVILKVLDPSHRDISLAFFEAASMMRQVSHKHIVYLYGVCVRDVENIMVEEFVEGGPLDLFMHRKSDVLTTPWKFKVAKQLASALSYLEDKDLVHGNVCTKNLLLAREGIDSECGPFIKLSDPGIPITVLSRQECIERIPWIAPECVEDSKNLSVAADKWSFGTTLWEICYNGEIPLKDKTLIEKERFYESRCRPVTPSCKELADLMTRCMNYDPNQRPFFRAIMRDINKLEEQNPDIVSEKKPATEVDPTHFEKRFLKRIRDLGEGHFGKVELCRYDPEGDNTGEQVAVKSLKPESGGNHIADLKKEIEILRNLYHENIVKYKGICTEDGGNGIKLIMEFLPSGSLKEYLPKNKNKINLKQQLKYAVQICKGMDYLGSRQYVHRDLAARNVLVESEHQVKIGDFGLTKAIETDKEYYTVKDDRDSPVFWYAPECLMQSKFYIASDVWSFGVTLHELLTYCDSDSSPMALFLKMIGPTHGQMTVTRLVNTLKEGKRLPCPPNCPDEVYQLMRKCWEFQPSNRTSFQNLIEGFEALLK
T1 sequence (Q13164 whole entry): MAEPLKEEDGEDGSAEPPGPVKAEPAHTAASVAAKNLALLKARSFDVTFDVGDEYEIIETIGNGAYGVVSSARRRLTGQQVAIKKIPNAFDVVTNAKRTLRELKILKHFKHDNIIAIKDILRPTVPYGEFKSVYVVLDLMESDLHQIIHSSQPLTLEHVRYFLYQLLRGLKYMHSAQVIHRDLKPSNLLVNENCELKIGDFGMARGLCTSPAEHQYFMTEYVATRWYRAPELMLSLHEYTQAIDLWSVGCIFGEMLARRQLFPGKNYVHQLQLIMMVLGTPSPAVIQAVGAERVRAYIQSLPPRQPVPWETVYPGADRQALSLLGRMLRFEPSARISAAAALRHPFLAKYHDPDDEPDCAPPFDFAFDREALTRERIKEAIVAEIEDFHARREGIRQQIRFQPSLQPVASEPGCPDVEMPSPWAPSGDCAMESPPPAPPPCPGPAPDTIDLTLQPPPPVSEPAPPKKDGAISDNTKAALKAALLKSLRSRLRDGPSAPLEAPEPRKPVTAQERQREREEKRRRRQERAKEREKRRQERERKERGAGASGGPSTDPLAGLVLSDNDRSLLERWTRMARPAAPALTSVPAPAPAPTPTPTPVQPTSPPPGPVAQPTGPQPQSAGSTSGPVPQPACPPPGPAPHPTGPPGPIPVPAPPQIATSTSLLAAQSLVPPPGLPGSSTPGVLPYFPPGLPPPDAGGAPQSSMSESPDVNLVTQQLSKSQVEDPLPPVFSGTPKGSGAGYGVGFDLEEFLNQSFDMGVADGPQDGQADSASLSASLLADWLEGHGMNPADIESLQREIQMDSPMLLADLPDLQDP

Row | Compound | IC50 [1] | inhibition at 1 µM [1] | inhibition at 1 µM [2] | inhibition at 1 µM [3] | inhibition at 1 µM [5] | Kinase inhibition % at indicated screening concentration: AurB or AurC ([6]; screening concentration 1.0 μM) | inhibition at 0.1 µM [1] | inhibition at 0.1 µM [2] | inhibition at 0.1 µM [3] | inhibition at 0.1 µM [5] | Kinase inhibition % at indicated screening concentration: AurB or AurC ([6]; screening concentration 0.1 μM) | EC50 [4]
1 | CN1C(=O)c2ccccc2N(C)c2cc(N[C@H]3CC[C@H](N4CCCC4)CC3)ncc21 [Compound 74] | 101 to 500 nM | 50 to 75% | ≤ 35% | ≤ 35% | ≤ 35% | E (E is ≦35%) | – | – | – | – | – | 4960 nM
2 | CCOc1cc(C(=O)NC2CCOCC2)ccc1Nc1cc2c(cn1)N(C)C(=O)c1ccccc1N2C [Compound 80] | 101 to 500 nM | 50 to 75% | ≤ 35% | ≤ 35% | ≤ 35% | E (E is ≦35%) | – | – | – | – | – | 1290 nM
3 | CCOc1cc(C(=O)NCCOC)ccc1Nc1cc2c(cn1)N(C)C(=O)c1ccccc1N2C [Compound 83] | 101 to 500 nM | 75 to 90% | ≤ 35% | ≤ 35% | ≤ 35% | E (E is ≦35%) | – | – | – | – | – | 1480 nM
4 | CCOc1cc(C(=O)N2CCC(N3CCCC3)CC2)ccc1Nc1cc2c(cn1)N(C)C(=O)c1occc1N2C [Compound 91, 6-((2-Ethoxy-4-(4-(pyrrolidin-1-yl)piperidine-1-carbonyl)phenyl)amino)-4,9-dimethyl-4H-furo[3,2-e]pyrido[3,4-b][1,4]diazepin-10(9H)-one] | ≤ 50 nM | – | – | – | – | – | > 90% | ≤ 35% | ≤ 35% | ≤ 35% | E (E is ≦35%) | 710 nM
5 | CCOc1cc(C(=O)N2CCN(C(C)(C)C)CC2)ccc1Nc1cc2c(cn1)N(C)C(=O)c1ccccc1N2C [Compound 94] | ≤ 50 nM | – | – | – | – | – | 75 to 90% | ≤ 35% | ≤ 35% | ≤ 35% | E (E is ≦35%) | 980 nM
6 | CCOc1cc(C(=O)N2CCC[C@H](O)C2)ccc1Nc1cc2c(cn1)N(C)C(=O)c1ccccc1N2C [Compound 96] | ≤ 50 nM | – | – | – | – | – | > 90% | ≤ 35% | ≤ 35% | ≤ 35% | E (E is ≦35%) | 570 nM
7 | CCOc1cc(C(=O)NCCOCCO)ccc1Nc1cc2c(cn1)N(C)C(=O)c1ccccc1N2C [Compound 101] | 101 to 500 nM | 75 to 90% | ≤ 35% | ≤ 35% | ≤ 35% | E (E is ≦35%) | – | – | – | – | – | 970 nM
8 | CN1C(=O)c2ccccc2N(C)c2cc(NC3CCOCC3)ncc21 [Compound 102] | 101 to 500 nM | 75 to 90% | ≤ 35% | ≤ 35% | ≤ 35% | E (E is ≦35%) | – | – | – | – | – | 2520 nM

Continued, in another order:

Row | IC50 [1] | inhibition at 1 µM [1] | inhibition at 1 µM [2] | inhibition at 1 µM [3] | inhibition at 1 µM [5] | Kinase inhibition % at indicated screening concentration: AurB or AurC ([6]; screening concentration 1.0 μM) | inhibition at 0.1 µM [1] | inhibition at 0.1 µM [2] | inhibition at 0.1 µM [3] | inhibition at 0.1 µM [5] | Kinase inhibition % at indicated screening concentration: AurB or AurC ([6]; screening concentration 0.1 μM) | Compound | EC50 [4]
9 | ≤ 50 nM | > 90% | ≤ 35% | ≤ 35% | ≤ 35% | E (E is ≦35%) | – | – | – | – | – | CCOc1cc(C(=O)N2CCCNCC2)ccc1Nc1cc2c(cn1)N(C)C(=O)c1ccccc1N2C [Compound 71] | 780 nM
10 | ≤ 50 nM | – | – | – | – | – | 75 to 90% | ≤ 35% | ≤ 35% | ≤ 35% | E (E is ≦35%) | CCOc1cc(C(=O)N2CCC(F)C2)ccc1Nc1cc2c(cn1)N(C)C(=O)c1occc1N2C (centres unmarked) [Compound 72] | 1230 ± 150 nM
11 | 101 to 500 nM | 75 to 90% | ≤ 35% | ≤ 35% | ≤ 35% | E (E is ≦35%) | – | – | – | – | – | COc1cc(NS(C)(=O)=O)ccc1Nc1cc2c(cn1)N(C)C(=O)c1ccccc1N2C [Compound 73] | 1840 nM
12 | ≤ 50 nM | > 90% | ≤ 35% | ≤ 35% | ≤ 35% | E (E is ≦35%) | – | – | – | – | – | CCOc1cc(C(=O)N2CC[C@H](N(C)C)C2)ccc1Nc1cc2c(cn1)N(C)C(=O)c1ccccc1N2C [Compound 75] | 610 nM
13 | ≤ 50 nM | – | – | – | – | – | 75 to 90% | ≤ 35% | ≤ 35% | ≤ 35% | E (E is ≦35%) | CCOc1cc(C(=O)N2CCNC[C@H]2C)ccc1Nc1cc2c(cn1)N(C)C(=O)c1ccccc1N2C [Compound 82] | 1540 nM
14 | 50 to 100 nM | > 90% | ≤ 35% | ≤ 35% | ≤ 35% | E (E is ≦35%) | – | – | – | – | – | CCOc1cc(C(=O)NCCn2ccnc2)ccc1Nc1cc2c(cn1)N(C)C(=O)c1ccccc1N2C [Compound 84] | 1180 nM
15 | ≤ 50 nM | – | – | – | – | – | > 90% | ≤ 35% | ≤ 35% | ≤ 35% | E (E is ≦35%) | CCOc1cc(C(=O)N(C)CCN(C)C)ccc1Nc1cc2c(cn1)N(C)C(=O)c1ccccc1N2C [Compound 88] | 600 nM
16 | 50 to 100 nM | > 90% | ≤ 35% | ≤ 35% | ≤ 35% | E (E is ≦35%) | – | – | – | – | – | CCOc1cc(C(=O)N2CCCC(O)C2)ccc1Nc1cc2c(cn1)N(C)C(=O)c1ccccc1N2C (centres unmarked) [Compound 93] | 760 nM
17 | > 500 nM | 50 to 75% | ≤ 35% | ≤ 35% | ≤ 35% | E (E is ≦35%) | – | – | – | – | – | CCOc1cc(C(=O)N[C@H]2CCCOC2)ccc1Nc1cc2c(cn1)N(C)C(=O)c1ccccc1N2C [Compound 100] | 1020 nM
18 | ≤ 50 nM | – | – | – | – | – | > 90% | ≤ 35% | ≤ 35% | ≤ 35% | E (E is ≦35%) | CCOc1cc(C(=O)NCCN(CC)CC)ccc1Nc1cc2c(cn1)N(C)C(=O)c1ccccc1N2C [Compound 103] | 620 ± 40 nM
19 | 101 to 500 nM | 75 to 90% | ≤ 35% | ≤ 35% | ≤ 35% | E (E is ≦35%) | – | – | – | – | – | CCOc1cc(C(=O)NCCN2CCCC2)ccc1Nc1cc2c(cn1)N(C)C(=O)c1ccccc1N2C [Compound 105] | 1100 nM
20 | ≤ 50 nM | > 90% | ≤ 35% | ≤ 35% | ≤ 35% | E (E is ≦35%) | – | – | – | – | – | Cc1cc(CN2CCCC2)ccc1Nc1cc2c(cn1)N(C)C(=O)c1ccccc1N2C [Compound 106, 5,11-dimethyl-3-(2-methyl-4-(pyrrolidin-1-ylmethyl)phenylamino)-5H-benzo[e]pyrido[3,4-b][1,4]diazepin-10(11H)-one] | 2840 nM
